Data as given in patent US20250290117A1, “MOLECULAR PHENOTYPIC ANTIMICROBIAL SUSCEPTIBILITY TESTING” (priority 2024, published 2025).

Columns and labels:
Format in all cases: cell-based
[1] = tested on: pathogens of clinical samples; experiment: Molecular phenotypic antimicrobial susceptibility test of clinical samples, direct PCR without a separate DNA purification step (Table 6)
How it was run: (§1)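 Semi-quantitative PCR read-out: growth was taken as resistance and its absence as sensitivity, with DNA either purified (e.g. bead-based) or amplified directly from lysed sample without extraction. Before PCR, 0.5 McFarland dilutions of incubated clinical specimens were held 12-16 hours with breakpoint-level antimicrobials in culture media, beside a drug-free control.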

[2] = tested on: pathogens of clinical samples; experiment: Molecular phenotypic antimicrobial susceptibility test of clinical samples, extraction DNA purification step prior to PCR (Table 6)
How it was run: as §1

Escherichia coli = experiment: Traditional culture-based antimicrobial susceptibility test
Excerpt: Table 3 illustrates the results of an example antimicrobial agent susceptibility test of the current application versus a traditional culture-based antimicrobial agent susceptibility test for multiple Escherichia coli isolates, in accordance with one or more embodiments of the disclosure. These specimens underwent extraction or DNA purification prior to PCR. As in Tables 1 and 2, the results of the test of the current application are similar to the results from the traditional test. […]
Table 8 illustrates the results of an example antimicrobial agent susceptibility test of the current application versus a traditional culture-based antimicrobial agent susceptibility test for a low level positive with <10,000 cells/mL in the original specimen. These specimens were tested with direct PCR (e.g., no extraction DNA purification step prior to PCR) after 16 hours of incubation. As in Tables 1, 2, 3, 5, and 7, the results of the test are similar to the traditional test. […]

[3] = E. coli, clinical sample of r10-r24
[4] = E. coli, clinical sample of r158-r172
[5] = E. faecalis, clinical sample of r93-r99
[6] = E. faecalis, clinical sample of r100-r106
[7] = E. faecalis, clinical sample of r107-r113
[8] = E. faecalis, clinical sample of r114-r120
[9] = E. faecalis, clinical sample of r151-r157
[10] = K. aerogenes, clinical sample of r136-r150
[11] = K. pneumoniae, clinical sample of r121-r135
[12] = M. morganii, clinical sample of r55-r69
[13] = M. morganii, clinical sample of r70-r84
[14] = P. mirabilis, clinical sample of r25-r39
[15] = P. mirabilis, clinical sample of r40-r54
[16] = E. coli #1 - WDCM 00090 - 6.2×E3
[17] = E. coli #2 - WDCM 00090 - 6.2×E3

Structure (SMILES): CC1(C)S[C@@H]2[C@H](NC(=O)[C@H](N)c3ccccc3)C(=O)N2[C@H]1C(=O)O [Ampicillin]
- Molecular Antibiotic Susceptibility Result [1, 3]: Resistant
- Ct ([1]; E. coli, clinical sample of r10-r24, Ct control avg 12.97): 12.039
- Molecular Antibiotic Susceptibility Result [1, 4]: Sensitive (Antimicrobial wells with pathogen load detected below the control wells (typically >2 cycle thresholds later) may be reported as Sensitive)
- Ct ([1]; E. coli, clinical sample of r158-r172, Ct control avg 12.894): 28.274
- Molecular Antibiotic Susceptibility Result [1, 5]: Sensitive (Antimicrobial wells with pathogen load detected below the control wells (typically >2 cycle thresholds later) may be reported as Sensitive)
- Ct ([1]; E. faecalis, clinical sample of r93-r99, Ct control avg 22.011): 29.527
- Molecular Antibiotic Susceptibility Result [1, 6]: sensitive
- Ct ([1]; E. faecalis, clinical sample of r100-r106, Ct control avg 21.027): 33.467
- Molecular Antibiotic Susceptibility Result [1, 7]: sensitive
- Ct ([1]; E. faecalis, clinical sample of r107-r113, Ct control avg 20.529): 27.555
- Molecular Antibiotic Susceptibility Result [1, 8]: Sensitive (Antimicrobial wells with pathogen load detected below the control wells (typically >2 cycle thresholds later) may be reported as Sensitive)
- Ct ([1]; E. faecalis, clinical sample of r114-r120, Ct control avg 20.909): 27.767
- Molecular Antibiotic Susceptibility Result [1, 9]: Sensitive (Antimicrobial wells with pathogen load detected below the control wells (typically >2 cycle thresholds later) may be reported as Sensitive)
- Ct ([1]; E. faecalis, clinical sample of r151-r157, Ct control avg 18.551): 32.884
- Molecular Antibiotic Susceptibility Result [1, 10]: Sensitive (Antimicrobial wells with pathogen load detected below the control wells (typically >2 cycle thresholds later) may be reported as Sensitive)
- Ct ([1]; K. aerogenes, clinical sample of r136-r150, Ct control avg 13.854): 16.046
- Molecular Antibiotic Susceptibility Result [1, 11]: Resistant
- Ct ([1]; K. pneumoniae, clinical sample of r121-r135, Ct control avg […]): 14.269
- Molecular Antibiotic Susceptibility Result [1, 12]: Resistant
- Ct ([1]; M. morganii, clinical sample of r55-r69, Ct control avg 12.09): 10.538
- Molecular Antibiotic Susceptibility Result [1, 13]: Resistant
- Ct ([1]; M. morganii, clinical sample of r70-r84, Ct control avg 11.677): 11.867
- Molecular Antibiotic Susceptibility Result [1, 14]: Sensitive (Antimicrobial wells with pathogen load detected below the control wells (typically >2 cycle thresholds later) may be reported as Sensitive)
- Ct ([1]; P. mirabilis, clinical sample of r25-r39, Ct control avg 11.801): 29.219
- Molecular Antibiotic Susceptibility Result [1, 15]: Sensitive (Antimicrobial wells with pathogen load detected below the control wells (typically >2 cycle thresholds later) may be reported as Sensitive)
- Ct ([1]; P. mirabilis, clinical sample of r40-r54, Ct control avg 10.06): 30.995
- Molecular Antibiotic Susceptibility Result [2, 3]: Resistant
- Molecular Antibiotic Susceptibility Result [2, 4]: Sensitive (Antimicrobial wells with pathogen load detected below the control wells (typically >2 cycle thresholds later) may be reported as Sensitive)
- Ct ([2]; E. coli, clinical sample of r158-r172, Ct Control Avg 20.146): 29.961
- Molecular Antibiotic Susceptibility Result [2, 5]: Sensitive (Antimicrobial wells with pathogen load detected below the control wells (typically >2 cycle thresholds later) may be reported as Sensitive)
- Ct ([2]; E. faecalis, clinical sample of r93-r99, Ct Control Avg 22.987): 31.697
- Molecular Antibiotic Susceptibility Result [2, 6]: sensitive
- Ct ([2]; E. faecalis, clinical sample of r100-r106, Ct Control Avg 23.073): 37.6
- Molecular Antibiotic Susceptibility Result [2, 7]: sensitive
- Ct ([2]; E. faecalis, clinical sample of r107-r113, Ct Control Avg 22.144): 29.684
- Molecular Antibiotic Susceptibility Result [2, 8]: Sensitive (Antimicrobial wells with pathogen load detected below the control wells (typically >2 cycle thresholds later) may be reported as Sensitive)
- Ct ([2]; E. faecalis, clinical sample of r114-r120, Ct Control Avg 20.822): 33.01
- Molecular Antibiotic Susceptibility Result [2, 9]: Sensitive (Antimicrobial wells with pathogen load detected below the control wells (typically >2 cycle thresholds later) may be reported as Sensitive)
- Ct ([2]; E. faecalis, clinical sample of r151-r157, Ct Control Avg 20.56): Undet
- Molecular Antibiotic Susceptibility Result [2, 10]: Resistant
- Ct ([2]; K. aerogenes, clinical sample of r136-r150, Ct Control Avg 19.994): 19.504
- Molecular Antibiotic Susceptibility Result [2, 11]: Resistant
- Ct ([2]; K. pneumoniae, clinical sample of r121-r135, Ct Control Avg 24.272): 21.189
- Molecular Antibiotic Susceptibility Result [2, 12]: Resistant
- Ct ([2]; M. morganii, clinical sample of r55-r69, Ct Control Avg 28.86): 25.767
- Molecular Antibiotic Susceptibility Result [2, 13]: Resistant
- Ct ([2]; M. morganii, clinical sample of r70-r84, Ct Control Avg 27.053): 25.947
- Molecular Antibiotic Susceptibility Result [2, 14]: Sensitive (Antimicrobial wells with pathogen load detected below the control wells (typically >2 cycle thresholds later) may be reported as Sensitive)
- Ct ([2]; P. mirabilis, clinical sample of r25-r39, Ct Control Avg 26.064): 34.177
- Molecular Antibiotic Susceptibility Result [2, 15]: Sensitive (Antimicrobial wells with pathogen load detected below the control wells (typically >2 cycle thresholds later) may be reported as Sensitive)
- Ct ([2]; P. mirabilis, clinical sample of r40-r54, Ct Control Avg 26.987): 35.741
- Traditional Culture Results (Escherichia coli; [16]): Sensitive
- Traditional Culture Results (Escherichia coli; [17]): Sensitive
- Traditional Culture Result (Escherichia coli; E. coli isolate 4 (Table 3)): Resistant
- Traditional Culture Result (Escherichia coli; E. coli isolate 5 (Table 3)): Sensitive
- Traditional Culture Result (Escherichia coli; E. coli isolate JJ1887): Resistant

Structure (SMILES): Cc1nnc(SCC2=C(C(=O)O)N3C(=O)[C@@H](NC(=O)Cn4cnnn4)[C@H]3SC2)s1 [Cefazolin]
- Molecular Antibiotic Susceptibility Result [1, 3]: Sensitive (Antimicrobial wells with pathogen load detected below the control wells (typically >2 cycle thresholds later) may be reported as Sensitive)
- Molecular Antibiotic Susceptibility Result [1, 4]: Sensitive (Antimicrobial wells with pathogen load detected below the control wells (typically >2 cycle thresholds later) may be reported as Sensitive)
- Molecular Antibiotic Susceptibility Result [1, 10]: Sensitive (Antimicrobial wells with pathogen load detected below the control wells (typically >2 cycle thresholds later) may be reported as Sensitive)
- Molecular Antibiotic Susceptibility Result [1, 11]: Sensitive (Antimicrobial wells with pathogen load detected below the control wells (typically >2 cycle thresholds later) may be reported as Sensitive)
- Molecular Antibiotic Susceptibility Result [1, 12]: Resistant
- Molecular Antibiotic Susceptibility Result [1, 13]: Resistant
- Molecular Antibiotic Susceptibility Result [1, 14]: Sensitive (Antimicrobial wells with pathogen load detected below the control wells (typically >2 cycle thresholds later) may be reported as Sensitive)
- Molecular Antibiotic Susceptibility Result [1, 15]: Sensitive (Antimicrobial wells with pathogen load detected below the control wells (typically >2 cycle thresholds later) may be reported as Sensitive)
- Molecular Antibiotic Susceptibility Result [2, 3]: Sensitive (Antimicrobial wells with pathogen load detected below the control wells (typically >2 cycle thresholds later) may be reported as Sensitive)
- Molecular Antibiotic Susceptibility Result [2, 4]: Sensitive (Antimicrobial wells with pathogen load detected below the control wells (typically >2 cycle thresholds later) may be reported as Sensitive)
- Molecular Antibiotic Susceptibility Result [2, 10]: Resistant
- Molecular Antibiotic Susceptibility Result [2, 11]: Sensitive (Antimicrobial wells with pathogen load detected below the control wells (typically >2 cycle thresholds later) may be reported as Sensitive)
- Molecular Antibiotic Susceptibility Result [2, 12]: Resistant
- Molecular Antibiotic Susceptibility Result [2, 13]: Resistant
- Molecular Antibiotic Susceptibility Result [2, 14]: Resistant
- Molecular Antibiotic Susceptibility Result [2, 15]: Sensitive (Antimicrobial wells with pathogen load detected below the control wells (typically >2 cycle thresholds later) may be reported as Sensitive)
- Traditional Culture Results (Escherichia coli; [16]): Sensitive
- Traditional Culture Results (Escherichia coli; [17]): Sensitive
- Traditional Culture Result (Escherichia coli; E. coli isolate 1 (Table 3)): Resistant
- Traditional Culture Result (Escherichia coli; E. coli isolate 2 (Table 3)): Resistant
- Traditional Culture Result (Escherichia coli; E. coli isolate 3 (Table 3)): Resistant
- Traditional Culture Result (Escherichia coli; E. coli isolate 4 (Table 3)): Resistant
- Traditional Culture Result (Escherichia coli; E. coli isolate 5 (Table 3)): Sensitive
- Traditional Culture Result (Escherichia coli; E. coli isolate JJ1887): Resistant
